Results: patent US20030060493A1, “Repinotan kit” (priority 2000, published 2003)

System: stroke or craniocerebral trauma
Assay: Clinical studies in healthy subjects and patients after stroke or craniocerebral trauma
Format: in vivo, human

For O=C1c2ccccc2S(=O)(=O)N1CCCCNCC1CCc2ccccc2O1 (stereo in doubt) [repinotan, 2-[4-({[(2R)-chroman-2-yl]methyl}amino)butyl]-1,2-benzisothiazol-3(2H)-one 1,1-dioxide], the “neurological and functional deficits” value (after 3 and 6 months respectively depending on indication) was “possible to improve the neurological and functional deficits”, the tolerability (healthy subjects and patients after a stroke or craniocerebral trauma) was “good tolerability” and the “result of treatment versus placebo” value (patients who reached blood plasma concentrations of about 5-20 μg/l) was “markedly better”.
